Entries after “also recorded” stand apart in the source; their conditions may differ. One block for each compound: values may come before it.
Experiments:
HCC827 cells = test: Cell viability assay (CCK-8), HCC827; type: cell-based; conditions: HCC827, 48 h
Protocol: (§1) Various cancer cell lines, including human colon cancer cell line HT-29, ovarian cell line OVCAR-3, melanoma cell line B16-F10, skin squamous cancer cells A431, cervical cancer cells Hela, lung cancer cell lines A549, H1975, and HCC827, were purchased from American type culture collection (ATCC). A431, H1975, B16-F10, OVCAR-3, HT-29, HCC827, Hela, and A549 cells were cultured in Dulbecco’s modified Eagle medium (DMEM, Gibco) containing 10% fetal bovine serum (FBS, Gibco), penicillin (100 U/ml) and streptomycin (100 μg/ml). All cell lines were maintained in a humidified 37°C incubator with 5% CO2. The medium was refreshed every 2–3 days and the cells were passaged at ∼90% confluence by adding the fresh medium, followed by vigorously pipetting the resuspend cells. Of note, the cells were only washed with PBS when a significant number of dead cells were observed.
(§2) The antiproliferation activity of the compounds against the cancer cell lines was evaluated using Cell Counting Kit-8. Briefly, cells (∼1,000 per well) in 100 µl of culture medium were plated in a 96-well plate for 24 h and 100 µl of medium with different concentrations of the tested compounds was added to each well for 48 h. Then 10 μl of CCK8 solution (#CK04, Dojindo) was added and incubated at 37°C for 2 h. The absorbance of each well was measured with a plate reader (BioTeck) at 450 nm. Cell viability was calculated as follows: cell viability (%) = [(As-Ab)/(Ac-Ab)] × 100. Among them, As represents the absorbance of experimental wells, Ab represents the absorbance of blank wells and Ac represents the absorbance of control wells. The experiments were repeated at least three times and IC50 values were determined by plotting a log(inhibitor) v. s normalized response (Variable slope) dose–response curve generated using GraphPad Prism software.

HT-29 cells = test: Cell viability assay (CCK-8), HT-29; type: cell-based, human; conditions: HT-29, 48 h
Protocol: as §1, §2

A431 cells = test: Cell viability assay (CCK-8), A431; type: cell-based; conditions: A431, 48 h, CCK-8
Protocol: as §1, §2

A549 cells = test: Cell viability assay (CCK-8), A549; type: cell-based; conditions: A549, 48 h
Protocol: as §1, §2

Hela cells = test: Cell viability assay (CCK-8), Hela; type: cell-based; conditions: 48 h
Protocol: as §1, §2

B16-F10 cells = test: Cell viability assay (CCK-8), B16-F10; type: cell-based; conditions: B16-F10, 48 h, CCK-8
Protocol: as §1, §2

human MAGL = biological target: T1, human MAGL (Homo sapiens, UniProt Q99685); test: MAGL activity assay (AA-HNA fluorogenic substrate); type: biochemical
T1 construct: expressed in transfected cells; host or cells: HEK293T (transient transfection; membrane fraction)
T1 sequence (Q99685 1-303): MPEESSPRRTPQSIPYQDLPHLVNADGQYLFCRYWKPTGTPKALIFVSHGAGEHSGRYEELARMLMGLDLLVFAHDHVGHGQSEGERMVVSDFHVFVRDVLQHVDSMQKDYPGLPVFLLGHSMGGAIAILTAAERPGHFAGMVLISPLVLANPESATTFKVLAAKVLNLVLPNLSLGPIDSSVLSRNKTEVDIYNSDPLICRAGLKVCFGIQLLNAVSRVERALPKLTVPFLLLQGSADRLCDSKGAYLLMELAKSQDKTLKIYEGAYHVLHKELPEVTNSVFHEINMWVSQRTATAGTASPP
How it was run: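 Membranes from transiently transfected HEK293T cells overexpressing MAGL were preincubated with inhibitor for 30 min in 40 mM HEPES pH 7.5 with 0.1 mg/ml BSA. AA-HNA substrate was then added (10 µl of 200 µM stock), and fluorescence was read every minute for 30 min. Activity was taken from the slope between 5 and 15 min.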

[1] = tested on: endogenous MAGL in cancer cells; test: Competitive ABPP in cancer cell lysates: MAGL band; type: biochemical; conditions: 10 μM preincubation, cancer cell lysates
Protocol: (§3) To identify the potential off-targets of the compounds with anti-cancer activities, ABPP was applied. Cancer cells were seeded in the dishes and were washed with PBS, scraped, centrifugated (3,000 × g, 3 min) and pellets snap frozen in liquid in nitrogen. For ABPP experiments, the cell pellets were lysed by probe sonication (3 × 10 bursts) in PBS, followed by the determination of protein concentration of the intact cell lysate by Qubit assay. […] The reactions were then quenched by 10 µl sample buffer (×4). The obtained samples were directly loaded and resolved on SDS-PAGE gel (10% acrylamide). The gel-based ABPP results were then scanned and analyzed using a ChemiDoc MP system (Cy3 settings, BioRad).

OVCAR-3 cells = test: Cell viability assay (CCK-8), OVCAR-3; type: cell-based; conditions: OVCAR-3, 48 h
Protocol: as §1, §2

H1975 cells = test: Cell viability assay (CCK-8), H1975; type: cell-based; conditions: H1975, 48 h
Protocol: as §1, §2

ABHD6 in cancer cells = test: Competitive ABPP in cancer cell lysates: ABHD6 band; type: biochemical; conditions: 10 μM preincubation, A431 and B16-F10 cells
Protocol: as §3

human ABHD6 = biological target: T2, human ABHD6 (Homo sapiens, UniProt Q9BV23); test: ABHD6 activity assay (AA-HNA fluorogenic substrate); type: biochemical
T2 construct: expressed in transfected cells; host or cells: HEK293T (transient transfection; membrane fraction)
T2 sequence (Q9BV23 1-337): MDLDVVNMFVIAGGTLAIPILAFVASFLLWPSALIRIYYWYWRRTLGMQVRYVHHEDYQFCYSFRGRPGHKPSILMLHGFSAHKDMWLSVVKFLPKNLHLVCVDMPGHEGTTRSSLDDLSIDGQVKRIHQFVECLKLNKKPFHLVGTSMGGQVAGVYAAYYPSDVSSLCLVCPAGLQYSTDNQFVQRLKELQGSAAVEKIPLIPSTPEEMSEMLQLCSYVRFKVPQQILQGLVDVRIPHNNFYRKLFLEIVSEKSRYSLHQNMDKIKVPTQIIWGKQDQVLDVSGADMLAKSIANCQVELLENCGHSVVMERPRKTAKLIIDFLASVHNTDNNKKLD
How it was run: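 Membranes from HEK293T cells transiently overexpressing human ABHD6 (50 μg/ml final) were preincubated 30 min with inhibitor in 40 mM HEPES pH 7.5, 0.1 mg/ml BSA, 5% DMSO. Hydrolysis of 200 µM AA-HNA was followed by fluorescence for 30 min, activity taken as the 5–15 min slope.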

[2] = tested on: serine hydrolases labeled by FP-TAMRA in mouse brain membrane proteome; test: Competitive ABPP selectivity assay, mouse brain membrane proteome; type: biochemical; conditions: 100 µM, FP-TAMRA 250 nM
Protocol: Mouse brains were dounce homogenized lysis buffer (20 mM HEPES, 2 mM DTT, 1 mM MgCl2, 25 U/mL benzonase) and incubated on ice for 15 min, followed by low-speed spin (2,500 g, 3 min, 4 C) to remove debris. The supernatant was subjected to ultracentrifugation (100,000 g, 45 min, 4°C) to generate the cytosolic fraction in the supernatant, as well as the membrane fraction as a pellet. After removal of the soluble supernatant, the pellet was resuspended in storage buffer (20 mM HEPES, 2 mM DTT) by pipetting. Total protein concentrations in membrane and soluble fractions were determined using a Qubit protein assay (Invitrogen). The obtained samples were stored at −80°C until further use.
The competitive ABPP selectivity assay was performed according to the previously reported protocol. Briefly, mouse brain membrane proteome (2 mg/ml, 20 µl) was preincubated for 30 min with 0.5 µl of DMSO (vehicle) or inhibitor (100 μM, finial concentration). […] The reactions were then quenched by 10 µl sample buffer (×4). The obtained samples were directly loaded and resolved on SDS-PAGE gel (10% acrylamide). The gels were then scanned and analyzed using a ChemiDoc MP system (Cy3 settings, BioRad). All the samples were measured and duplicated.

human ABHD12 = biological target: T3, human ABHD12 (Homo sapiens, UniProt Q8N2K0); test: ABHD12 activity by competitive ABPP with FP-TAMRA; type: biochemical; conditions: 100 µM compound; competitive ABPP with probe FP-TAMRA (250 nM); read-out: ABHD12 Inhibition (%)
T3 construct: expressed in transfected cells; host or cells: HEK293T (transient transfection; membrane fraction)
T3 sequence (Q8N2K0 1-398): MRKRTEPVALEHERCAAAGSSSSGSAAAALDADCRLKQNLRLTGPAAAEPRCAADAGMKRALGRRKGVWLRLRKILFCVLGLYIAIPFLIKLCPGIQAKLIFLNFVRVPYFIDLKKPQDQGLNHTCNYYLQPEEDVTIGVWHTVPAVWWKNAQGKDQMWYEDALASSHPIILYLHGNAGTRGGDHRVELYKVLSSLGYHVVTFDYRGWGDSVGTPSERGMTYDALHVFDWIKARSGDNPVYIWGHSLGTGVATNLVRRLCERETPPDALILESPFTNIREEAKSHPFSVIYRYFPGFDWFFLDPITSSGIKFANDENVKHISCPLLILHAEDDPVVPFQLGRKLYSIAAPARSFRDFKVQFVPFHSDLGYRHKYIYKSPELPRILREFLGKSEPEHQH
How it was run: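 Membrane fractions of HEK293T cells transiently overexpressing human ABHD12 (1 mg/ml) preincubated with inhibitor or DMSO for 30 min at room temperature, then labelled with FP-TAMRA (250 nM final) for 20 min. Quenched samples resolved by SDS-PAGE and read by in-gel fluorescence scanning (Cy3 settings).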

[3] = 100 µM, AA-HNA substrate assay, Supplementary Table 1, read-out: MAGL Inhibition (%)
[4] = 100 µM, AA-HNA substrate assay, Supplementary Table 2, read-out: ABHD6 Inhibition (%)

Compound: O=C(OC(C(F)(F)F)C(F)(F)F)N1CCC(C(O)(c2ccc3c(c2)OCO3)c2ccc3c(c2)OCO3)CC1 [KML29, reference compound]
- Antiproliferation activity (pIC50 ± SEM) HCC827 (HCC827 cells): <5
- Antiproliferation activity (pIC50 ± SEM) HT-29 (HT-29 cells): 5.0 ± 0.3
- Antiproliferation activity (pIC50 ± SEM) A431 (A431 cells): <5
- Antiproliferation activity (pIC50 ± SEM) A549 (A549 cells): <5
- Antiproliferation activity (pIC50 ± SEM) Hela (Hela cells): <5
- Antiproliferation activity (pIC50 ± SEM) B16-F10 (B16-F10 cells): 5.0 ± 0.2
- IC50 (human MAGL; 30 min preincubation, dose-response curve, read-out: IC50 (MAGL, AA-HNA assay)): 87 nM
- effect on fluorescent signal of AA-HNA hydrolysis by MAGL (human MAGL; preincubation with 1 µM): significantly reduced the fluorescent signal to the background level; also recorded: reduction of the fluorescent signal
- fluorescent band of MAGL (∼33 kDa) in ABPP gels [1]: competed away
- Antiproliferation activity (pIC50 ± SEM) OVCAR-3 (OVCAR-3 cells): <5
- Antiproliferation activity (pIC50 ± SEM) H1975 (H1975 cells): <5

- effect on fluorescent signal of AA-HNA hydrolysis by ABHD6 (human ABHD6; 10 µM): reduction of the fluorescent signal
Compound: O=C(N1CCCCC1c1ccccc1)n1cc(-c2ccc(-c3cccc(CO)c3)cc2)nn1 (stereo not shown) [KT182, reference compound]
- labeling of ABHD6 (∼32 kDa) (ABHD6 in cancer cells): disappeared

Compound: Cc1cc2c(C(C)C)c(O)c(O)c(C=O)c2c(O)c1-c1c(C)cc2c(C(C)C)c(O)c(O)c(C=O)c2c1O [compound 34, Gossypol Acetate]
- selectivity profile over serine hydrolases [2]: broad-spectrum inhibitors that cross-reacted with multiple serine hydrolases
- activity at 100 µM (human ABHD12): 43.7%
- activity at 100 µM (human MAGL; [3]): 35.2%
- activity at 100 µM (human ABHD6; [4]): 26.3%

- activity (human ABHD12): 119%
- activity (human MAGL; [3]): 41.3%
- activity (human ABHD6; [4]): 115%
Compound: O=C(CCc1ccc(O)cc1)c1c(O)cc(O)cc1O [compound 66, Dihydronaringenin]
- selectivity profile over serine hydrolases [2]: broad-spectrum inhibitors that cross-reacted with multiple serine hydrolases

Compound: O=c1c(O)c(-c2ccc(O)c(O)c2)oc2cc(O)cc(O)c12 [compound 70, Quercetin]
- selectivity profile over serine hydrolases [2]: broad-spectrum inhibitors that cross-reacted with multiple serine hydrolases
- activity at 100 µM (human ABHD12): 75.1%
- activity at 100 µM (human MAGL; [3]): 42%
- activity at 100 µM (human ABHD6; [4]): 48.6%

— article PMC9465256, “Discovering monoacylglycerol lipase inhibitors by a combination of fluorogenic substrate assay and activity-based protein profiling” (Frontiers in Pharmacology, 2022)
